Values after ≈ are worked out from the molar mass of the structure shown. Like-named read-outs stand apart in the source and are kept apart here.
What was measured:
[1] = Colloidal stability and self-emulsifying properties: drug recovered after incubation in simulated GI media and filtration; format: physicochemical; settings: for Compound (Ic) recovered after filtration (2 μm) after incubation with GI media: diluted 1:50, 2 h at 37° C., theoretical concentration 200 μg/ml; for filtered fraction: aqueous solution of the drug, filter 0.45, 2 or 5 μm
Procedure: The preparation of the mixture of Miglyol 812 (liquid), Cremophor RH40 (semisolid at room temperature, solidification point 28° C.) and Capryol 90 (liquid) needed to heat the mixture at 60° C. to obtain a homogeneous solution. In addition, the heating of the mixture could have an impact on the chemical stability of Compound Ic. Taking into account these two issues, the proposition was made to replace Cremophor RH 40 by Cremophor EL (from same chemical family). Cremophor EL, polyoxyl 35 castor oil, is a liquid surfactant: No heating is needed for the manufacturing. Two tests were performed to evaluate the interest of Cremophor EL in comparison with Cremophor RH 40: design of the pseudoternary diagram for a surfactant/co surfactant ratio of 3:1 and test of the infinite dilutability. [drawing 15] • Miglyol 812N (Condea, Batch 508) • PEG 400—Batch 5056 • Phosal 50PG (Aventis Nattermann, Batch 228188) • Labrafil 1944CS (Gattefossé, Batch 15195) • Labrasol (Gattefossé, Batch 22478) • Gelucire 44/14 (Gattefossé, Batch 14236) Microemulsions (Cremophor RH40 or EL, Capryol 90, Miglyol 812N) The weighed drug (50 mg) was dispersed in the excipient (up to 5 g), and then maintained under mechanical stirring until dissolution. […] The mass was poured in a suppository mould and kept refrigerated overnight. For the stability studies, the melted mass was poured into hard gelatine capsule (size 1) and kept refrigerated overnight. The gelatine shell was then removed. [drawing 17] The following simulated media were selected for the present experiment: • Gastric medium USP, pH 1.2 • Fasted intestinal medium, pH 6.8 (ref. Dressman et al., Pharm. Res., 1998)
Fed intestinal medium, pH 5 (ref. Dressman et al., Pharm. Res., 1998)
All Compound (Ic) formulations (400 mg) were diluted 1:50 in the gastric, fasted intestinal or fed intestinal medium (20 ml), then incubated during 2 hours at 37° C. under mechanical stirring (300 rpm). The drug concentration was determined by HPLC before and after filtration (0.2 or 2 μm).
The aim of this study was to evaluate the colloidal stability and the self-emulsifying properties of the emulsion/microemulsion/micellar solution of the (Ic) formulation after incubation in the GI media. Thus, the sample was filtered onto 2 μm (able to retain oil droplets >2 μm, as well as drug crystals >2 μm) then dosed by HPLC. The filter size (2 μm) has been chosen after a screening with different filter sizes (0.45, 2 and 5 μm) tested on the aqueous solution of the drug. […] In summary, the filtered fraction was approximately 1% in the gastric medium, 2% in the fasted intestinal medium, 4.5-5.5% in the fed intestinal medium.

[2] = Oral bioavailability in preclinical studies in rats; settings: rat, in vivo
Procedure: (§1) In the first preclinical studies performed in rats, the oral administration of an aqueous suspension of a drug substance of formula (I) in 0.5% methylcellulose/0.2% tween 80 (dose at 10 mg/kg) led to a very low bioavailability (3%). […] Furthermore, this excipient (medium chain triglyceride) is known for its digestibility and regulatory acceptability. […] However, in the First in Man study, an important food effect and interindividual variability were observed: the Maximum Tolerated Dose was around 100 mg in fasted conditions, with an interindividual variability of 50%, whereas in fed conditions the Maximum Tolerated Dose was divided by 10 with a decrease of the interindividual variability to 30%.

[3] = Solubility of compound (Ic) in lipids, surfactants and pharmaceutical cosolvents; format: physicochemical
From the text: The first step was to determine the solubility of compound(Ic) in an exhaustive series of lipids and other pharmaceutical cosolvents including vegetable oils, lipidic components, surfactants, hydrophilic components and phospholipids. The protocol of the solubility measurement is reported in the annex.

[4] = First in Man study (Maximum Tolerated Dose, interindividual variability, food effect); format: in vivo; settings: Miglyol 812N solution
Procedure: as §1

CS(=O)(=O)C(=C1CN(C(c2ccc(Cl)cc2)c2ccc(Cl)cc2)C1)c1cc(F)cc(F)c1 [Compound (Ic)]
Compound (Ic) recovered after filtration (2 μm) after incubation with GI media ([1]; Fasted intestinal medium pH 6.8): 4.2 µg/mL | Compound (Ic) recovered after filtration (2 μm) after incubation with GI media ([1]; Fed intestinal medium pH 5): 8.8 µg/mL | Compound (Ic) recovered after filtration (2 μm) after incubation with GI media ([1]; Gastric medium): 1.9 µg/mL | filtered fraction ([1]; fasted intestinal medium): ~2% | filtered fraction ([1]; fed intestinal medium): 4.5-5.5% | filtered fraction ([1]; gastric medium): approximately 1% | bioavailability ([2]; aqueous suspension in 0.5% methylcellulose/0.2% tween 80, dose 10 mg/kg): 3% | bioavailability ([2]; solution of 25 mg/mL in Miglyol 812N, dose 1 mg/kg): 13% | bioavailability ([2]; solution of 25 mg/mL in Miglyol 812N, dose 10 mg/kg): 37% | solubility ([3]; aqueous with cosolvent or surfactant or cyclodextrin, in Cremophor RH40 (POE hydrogenated castor oil), read-out: solubility): 80.6 mg/mL (≈ 163 mM) | solubility ([3]; aqueous with cosolvent or surfactant or cyclodextrin, in HP β Cyclodextrin, read-out: solubility): 0.05 mg/mL (≈ 0.101 mM) | solubility ([3]; aqueous with cosolvent or surfactant or cyclodextrin, in Span 20 (Sorbitan monolaurate), read-out: solubility): 31.6 mg/mL (≈ 63.9 mM) | solubility ([3]; aqueous with cosolvent or surfactant or cyclodextrin, in Span 85 (Sorbitan trioleate), read-out: solubility): 92 mg/mL (≈ 186 mM) | solubility ([3]; aqueous with cosolvent or surfactant or cyclodextrin, in Tween 80 (POE monooleate), read-out: solubility): 50.6 mg/mL (≈ 102 mM) | solubility ([3]; in Brij 96 (POE oleyl ether)): 85.7 mg/g | solubility ([3]; in Capryol 90 (Polyethyleneglycol monocaprylate)): 56.6 mg/g | solubility ([3]; in Castor oil): 16.1 mg/g | solubility ([3]; in Coconut oil): 18.6 mg/g | solubility ([3]; in Cremophor RH 40 (Polyoxyl 40 hydrogenated castor oil)): 80.6 mg/g | solubility ([3]; in Crossential LN 75 (Linolenic acid)): 45.4 mg/g | solubility ([3]; in Crossential O94 (Oleic acid)): 19.6 mg/g | solubility ([3]; in Edenor C8 98-100 (Caprylic acid)): 75.5 mg/g | solubility ([3]; in Gelucire 44/14 (lauroyl macrogol-32 glycerides)): 90.1 mg/g | solubility ([3]; in Gelucire 50/13 (stearoyl macrogol-32 glycerides)): 78.5 mg/g | solubility ([3]; in Labrafil M 1944 CS (Oleic Macrogol-6 glycerides)): 30.3 mg/g | solubility ([3]; in Labrasol (Caprylocaproyl macrogol-8 glycerides)): 111.8 mg/g | solubility ([3]; in Lauroglycol (PG monolaurate)): 28.5 mg/g | solubility ([3]; in Miglyol 812 (Caprylic/capric triglycerides)): 37.4 mg/g | solubility ([3]; in Myrj 45 (POE stearate)): 86.9 mg/g | solubility ([3]; in Myvacet 9-45 (Distilled acetylated monoglycerides)): 54.8 mg/g | solubility ([3]; in Neobee M 20 (PG dicaprylate/dicaprate)): 47.7 mg/g | solubility ([3]; in Olive oil): 10.9 mg/g | solubility ([3]; in PEG 1500 (polyethylene glycol 1500)): <10 mg/g | solubility ([3]; in Phosal 40 MD (Phosphatidylcholine 38 ± 1.5% in glyceryl stearate, soya oil and linoleic acid ethylester)): 12.5 mg/g | solubility ([3]; in Phosal 50 PG (Phosphatidylcholine ≧ 50% in propylene glycol)): 11.7 mg/g | solubility ([3]; in Phosal 50 PG (Phosphatidylcholine ≧ 50% in propylene glycol), listed as Compound Ic): 11.5 mg/g | solubility ([3]; in Phosal 53 MCT (Phosphatidylcholine 56 ± 3% in caprylic/capric triglycerides, alcohol, glyceryl stearate, oleic acid and ascorbyl palmitate)): 25.8 mg/g | solubility ([3]; in Phosal 75 SA (Phosphatidylcholine 75 ± 3% in alcohol, safflower oil, glyceryl stearate, coconut oil and ascorbyl palmitate)): <10 mg/g | solubility ([3]; in Phospholipon 90 (Phosphatidylcholine 93%)): 40 mg/g | solubility ([3]; in Safflower oil): 14.8 mg/g | solubility ([3]; in Sesame oil): 10.9 mg/g | solubility ([3]; in VitaminE TPGS (d-α-tocopheryl polyethylene glycol 1000 succinate)): 100 mg/g | solubility ([3]; oil or lipid, in Imwitor 742 (Glyceryl mono-dicaprylate/caprate), read-out: solubility): 31.2 mg/mL (≈ 63.1 mM) | solubility ([3]; oil or lipid, in Imwitor 988 (Glyceryl mono-dicaprylate), read-out: solubility): 41.2 mg/mL (≈ 83.3 mM) | solubility ([3]; oil or lipid, in Labrafil M1944 CS (oleyl macrogol-6-glycerides), read-out: solubility): 30.3 mg/mL (≈ 61.3 mM) | solubility ([3]; oil or lipid, in Miglyol 812 (caprylic/capric triglyceride), read-out: solubility): 35.9 mg/mL (≈ 72.6 mM) | solubility ([3]; oil or lipid, in Peanut oil, read-out: solubility): 7.2 mg/mL (≈ 14.6 mM) | solubility ([3]; oil or lipid, in Soyabean oil, read-out: solubility): 31.8 mg/mL (≈ 64.3 mM) | solubility ([3]; organic solvent or mixture, in Ethanol, read-out: solubility): 5.8 mg/mL (≈ 11.7 mM) | solubility ([3]; organic solvent or mixture, in PEG 400 (polyethylene glycol 400), read-out: solubility): 78.1 mg/mL (≈ 158 mM) | solubility ([3]; organic solvent or mixture, in Transcutol (Diethylene glycol monoethyl ether), read-out: solubility): 89.8 mg/mL (≈ 182 mM) | Maximum Tolerated Dose ([4]; fasted conditions): around 100 mg | interindividual variability ([4]; fasted conditions): 50% | Maximum Tolerated Dose relative to fasted conditions ([4]; fed conditions): divided by 10 | interindividual variability ([4]; fed conditions): 30%

— patent US20050037062A1, “Emulsifying systems containing azetidine derivatives” (Aventis Pharma S.A., priority 2003, published 2005)
